Each structure is given as a SMILES string.

These results are taken from patent publication US20070148154A1, “Use of superoxide dismutase mimetics and reductase gultatione in the form of anticancer drugs” (UNIVERSITE RENE DESCARTES (PARIS V), priority 2004, published 2007).

The subject of data set [1] is Hepa 1-6 (mouse liver hepatoma). Kind of data set: In vitro cell proliferation assay ([3H]-thymidine). In kind it is cell-based. To be noted: 10 μM, no antioxidant.
Method: (§4) In vitro cell proliferation assays were carried out on the following cell lines: CT26 (mouse colon carcinoma, ATCC (American Type Culture Collection) No. 2638), Hepa 1-6 (mouse liver hepatoma, ATCC No. 1830), A549 (human lung carcinoma, ATCC No. 185).
(§5) The cell proliferation is determined by incubating the cells for 16 hours with [^3H]-thymidine (1 μCi/well).
Another data set concerns plasmid pcDNA3.1. Kind of data set: Plasmid DNA alteration (agarose gel electrophoresis, densitometry). To be noted: 37° C., 24 h; SOD mimetics 5 μM; oxaliplatin maximum at DNA/oxaliplatin ratio 0.5.
A further data set concerns A549 tumor cells. Put plainly: In vitro viability test (MTT). In kind it is cell-based, human. As to conditions: 10 μM, no antioxidant.
For the next data set, the system named is Hepa 1-6 tumor cells. Put plainly: In vitro viability test (MTT). Type of data set: cell-based, mouse. To be noted: 10 μM, no antioxidant.
The test system of data set [2] is CT26 carcinoma tumor cells in BALB/c mice. Kind of data set: In vivo antitumor activity, subcutaneous CT26 tumors. The arrangement: species or system mouse. To be noted: single injection of 20 mg/kg. The protocol:
(§1) The in vivo antitumor activity of various antioxidant treatments was estimated. For these experiments, female six- to eight-week-old BALB/c (for the injection of CT-26 tumor cells) or C57/BL6 (for the injection of Hepa 1-6 tumor cells) mice were used (IFFA CREDO, L'Arbresles, France). Two million tumor cells were injected into the back of the animals subcutaneously. When the size of the tumor reached 200 to 500 mm^3, the animals were given a single injection of 20 mg/kg of oxaliplatin (ELOXATIN®) or of a saline solution.
(§2) The mice were then treated intraperitoneally, two hours after the injection of oxaliplatin or of saline solution, with 10 mg/kg of mangafodipir, of MnTBAP or of CuDIPS, or with 150 mg/kg of NAC, or with a saline solution. The injection of the various antioxidants was continued for one month (three injections per week at the same doses). A group of mice inoculated with tumor cells was not treated.
(§3) The size of the tumors was measured every three days. The tumor volume was calculated as follows: VT (mm^3)=(L×W^2)/2, where L is the longest dimension and W the shortest dimension of the tumor in mm. Fifteen mice were included in each group.

In data set [3] the test system is Hepa 1-6 cells in C57BL/6 mice. Kind of data set: In vivo antitumor activity, subcutaneous Hepa 1-6 tumors. The arrangement: species or system mouse. As to conditions: single injection of 20 mg/kg. As to the method: as §1, §2, §3
The subject of data set [4] is A549 (human lung carcinoma). Kind of data set: In vitro cell proliferation assay ([3H]-thymidine). In kind it is cell-based. To be noted: 10 μM, no antioxidant.
Method: as §4, §5
Data set [5] relates to CT26 (mouse colon carcinoma). Kind of data set: In vitro cell proliferation assay ([3H]-thymidine). As to conditions: 10 μM, no antioxidant. In kind it is cell-based.
Method: as §4, §5
The next data set concerns CT26 tumor cells. Kind of data set: In vitro viability test (MTT). Type of data set: cell-based, mouse. To be noted: 10 μM, no antioxidant.
Another data set deals with normal human leukocytes. Kind of data set: In vitro viability test (MTT). As to conditions: 1 mM, no antioxidant.

Method for A549 tumor cells: (§6) In vitro viability tests, in response to the treatment with NAC, CuDIPS, MnTBAP or MnDPDP, were carried out on the cell lines of Example 1 and on normal human leukocytes. The latter were obtained from normal volunteers, after informed consent, by taking venous blood samples collected on an anticoagulant (lithium-heparinate). The red blood cells were lysed by osmotic shock using a hypotonic solution of potassium acetate and the leukocytes were cultured under the conditions described in Example 1.
(§7) For the viability test, the cells (2×10^4 cells/well) were seeded into 96-well plates (COSTAR, Corning Inc. NY, USA) and incubated for 48 hours in complete medium supplemented with increasing concentrations, from 0 to 400 μm, of NAC, of MnTBAP, of CuDIPS or of MnDPDP. The cell viability was evaluated by reduction of a methylthiazoletetrazolium salt (MTT; SIGMA) into formazan. The cells were exposed to 20 μl of MTT (5 mg/ml in PBS) and incubated for 4 h at 37° C. 150 μl of medium were then removed from each well and the reaction was visualized by the addition of 100 μl of DMSO (SIGMA). The absorbance was analyzed for each well at 550 nm and at 630 nm with an ELISA plate reader. The number of viable cells was determined by the difference between the absorbance at 550 nm and the absorbance at 630 nm.
(§8) The viability tests were carried out on the CT26, Hepa 16 and A549 tumor lines, and on normal human leukocytes, according to the protocol described in Example 2.
Method for CT26 tumor cells: as §6, §7, §8
Method for Hepa 1-6 tumor cells: as §6, §7, §8
Method for normal human leukocytes: as §6, §7, §8
Method for plasmid pcDNA3.1: The purified plasmid pcDNA3.1 (INVITROGEN) was used to analyze the potential DNA alterations in response to the addition of molecules used in cancer chemotherapy in the presence, or in the absence, of antioxidant enzyme modulators. This DNA was then stored at −20° C. in 10 mM TRIS, 1 mM EDTA until its use.
The plasmid DNA was incubated with oxaliplatin at a molar ratio of 0.50 in a final volume of 50 μl. MnTBAP (5 μM), CuDIPS (5 μM), mangafodipir (5 μM) or NAC (5 mM) were then added to the solution. The production of superoxide anion was realized by the addition of 200 μM xanthine (SIGMA) and 1 U of xanthine oxidase (SIGMA). The incubation was carried out in the dark at 37° C. for 24 h. At the end of the incubation period, 10 μl aliquots were subjected to 0.8% agarose gel electrophoresis and detected by ethidium bromide staining. The gels were then analyzed by densitometry (VILBER LOURMAT, Marnes-la-Vallée, France).

As for `N[C@@H]1CCCC[C@H]1N.O=C([O-])C(=O)[O-].[Pt+2]` [oxaliplatin, [(1R,2R)-1,2-cyclohexanediamine-N,N′][oxalate-(2-)—O,O′]platinum (II)], the “decrease in tumor cell proliferation, antitumor agent alone” value is 70% in [1], 93% in [4] and 91% in data set [5]. The “effect on the structure of plasmid DNA (form I / II / III)” value with plasmid pcDNA3.1 is listed as “dose-dependent impairment”. In addition, the “decrease in cell viability, antitumor agent alone, on average” value with A549 tumor cells is listed as 28%; with Hepa 1-6 tumor cells it was 50%; in the data set with CT26 tumor cells, 27%. The “tumor volumes compared with the nontreated animals” value in data set [2] is recorded as “divides the tumor volumes in half”; in [3] it was “divides the tumor volumes by four”. The “decrease in viability of normal leukocytes, antitumor agent alone” value in the data set on normal human leukocytes was “approximately 50%”.
